In patent US7582645B2, “Pyrimidine derivatives for treatment of hyperproliferative disorders” (Bayer Pharmaceuticals Corporation, priority 2003, dated 2009):

System: HCT116 cells
Assay: HCT116 cytotoxic activity assay (Alamar Blue, 72 h)
Type: cell-based
Conditions: Homo sapiens, HCT-116, 72 h compound exposure, greater than 500 nM but less than or equal to 2 μM
Description: Representative compounds of this invention were tested for cytotoxicity using the above-described assay procedure with the following results: […]

| Structure (SMILES) | IC50 |
| --- | --- |
| Nc1nc(Nc2cccc(Oc3ccnc(N4CCC[C@H]4CO)c3)c2)cc(-c2ccccc2)n1 [Example 128, [(2S)-1-(4-{3-[(2-amino-6-phenylpyrimidin-4-yl)amino]phenoxy}pyridin-2-yl)pyrrolidin-2-yl]methanol] | 500 to 2000 nM |
| CN1CCN(c2cc(Oc3cccc(Nc4cc(-c5ccccc5)nc(N)n4)c3)ccn2)CC1 [Example 130, N4*-(3-{[2-(4-methylpiperazin-1-yl)pyridin-4-yl]oxy}phenyl)-6-phenylpyrimidine-2,4-diamine] | 500 to 2000 nM |
| Nc1nc(Nc2ccc(Oc3ccnc(N(N)Cc4ccccc4)c3)cc2)cc(-c2ccccc2)n1 [Example 131, N4*-(4-{[2-(1-benzylhydrazino)pyridin-4-yl]oxy}phenyl)-6-phenylpyrimidine-2,4-diamine] | 500 to 2000 nM |
| CN1CCN(c2cc(Oc3ccc(Nc4cc(-c5ccccc5)nc(N)n4)cc3)ccn2)CC1 [Example 135, N4*-(4-{[2-(4-methylpiperazin-1-yl)pyridin-4-yl]oxy}phenyl)-6-phenylpyrimidine-2,4-diamine] | 500 to 2000 nM |
| COCCN1CCN(c2cc(Oc3ccc(Nc4cc(-c5ccccc5)nc(N)n4)cc3)ccn2)CC1 [Example 136, N4*-[4-({2-[4-(2-methoxyethyl)piperazin-1-yl]pyridin-4-yl}oxy)phenyl]-6-phenylpyrimidine-2,4-diamine] | 500 to 2000 nM |
| CN(C)CCNc1cc(Oc2ccc(Nc3cc(-c4ccccc4)nc(N)n3)cc2)ccn1 [Example 138, N4*-{4-[(2-{[2-(dimethylamino)ethyl]amino}pyridin-4-yl)oxy]phenyl}-6-phenylpyrimidine-2,4-diamine] | 500 to 2000 nM |
| CCN(CC)CCCNc1cc(Oc2ccc(Nc3cc(-c4ccccc4)nc(N)n3)cc2)ccn1 [Example 141, N4*-{4-[(2-{[3-(diethylamino)propyl]amino}pyridin-4-yl)oxy]phenyl}-6-phenylpyrimidine-2,4-diamine] | 500 to 2000 nM |

Same assay, conditions: Homo sapiens, HCT-116, 72 h compound exposure, greater than 2 μM

| Structure (SMILES) | IC50 |
| --- | --- |
| COC[C@@H]1CCCN1c1cc(Oc2cccc(Nc3cc(-c4ccccc4)nc(N)n3)c2)ccn1 [Example 122, N4*-[3-({2-[2-(methoxymethyl)pyrrolidin-1-yl]pyridin-4-yl}oxy)phenyl]-6-phenylpyrimidine-2,4-diamine] | > 2000 nM |
| COCCN(CCOC)c1cc(Oc2cccc(Nc3cc(-c4ccccc4)nc(N)n3)c2)ccn1 [Example 126, N4*-[3-({2-[bis(2-methoxyethyl)amino]pyridin-4-yl}oxy)phenyl]-6-phenylpyrimidine-2,4-diamine] | > 2000 nM |

Same assay, conditions: Homo sapiens, HCT-116, 72 h compound exposure, less than or equal to 500 nM

| Structure (SMILES) | IC50 |
| --- | --- |
| Nc1ccc(-c2cc(Nc3ccc(Oc4ccnc(Cl)c4)cc3)nc(N)n2)cc1 [Example 116, 6-(4-aminophenyl)-N4*- {4-[(2-chloropyridin-4-yl)oxy]phenyl}pyrimidine-2,4-diamine] | ≤ 500 nM |
| Nc1nc(Nc2ccc(Oc3ccnc(Cl)c3)c(F)c2)cc(-c2ccccc2)n1 [Example 117, N4*-{4-[(2-chloropyridin-4-yl)oxy]-3-fluorophenyl}-6-phenylpyrimidine-2,4-diamine] | ≤ 500 nM |
| Nc1cccc(-c2cc(Nc3ccc(Oc4ccnc(Cl)c4)cc3)nc(N)n2)c1 [Example 118, 6-(3-aminophenyl)-N4*-{4-[(2-chloropyridin-4-yl)oxy]phenyl}pyrimidine-2,4-diamine] | ≤ 500 nM |
| Nc1nc(Nc2cccc(Oc3ccnc(N4CCCCC4)c3)c2)cc(-c2ccccc2)n1 [Example 119, 6-phenyl-N4*-{3-[(2-piperidin-1-ylpyridin-4-yl)oxy]phenyl}pyrimidine-2,4-diamine] | ≤ 500 nM |
| Nc1nc(Nc2cccc(Oc3ccnc(N4CCOCC4)c3)c2)cc(-c2ccccc2)n1 [Example 120, N4*-{3-[(2-morpholin-4-ylpyridin-4-yl)oxy]phenyl}-6-phenylpyrimidine-2,4-diamine] | ≤ 500 nM |
| Nc1nc(Nc2cccc(Oc3ccnc(N4CCCC4)c3)c2)cc(-c2ccccc2)n1 [Example 121, 6-phenyl-N4*-{3-[(2-pyrrolidin-1-ylpyridin-4-yl)oxy]phenyl}pyrimidine-2,4-diamine] | ≤ 500 nM |
| Nc1nc(Nc2cccc(Oc3ccnc(N4CCC[C@@H]4CO)c3)c2)cc(-c2ccccc2)n1 [Example 123, [(2R)-1-(4-{3-[(2-amino-6-phenylpyrimidin-4-yl)amino]phenoxy}pyridin-2-yl)pyrrolidin-2-yl]methanol] | ≤ 500 nM |
| COCCN(C)c1cc(Oc2cccc(Nc3cc(-c4ccccc4)nc(N)n3)c2)ccn1 [Example 124, N4*-[3-({2-[(2-methoxyethyl)(methyl)amino]pyridin-4-yl}oxy)phenyl]-6-phenylpyrimidine-2,4-diamine] | ≤ 500 nM |
| CC1CCCN1c1cc(Oc2cccc(Nc3cc(-c4ccccc4)nc(N)n3)c2)ccn1 (stereo not drawn) [Example 125, N4*-(3-{[2-(2-methylpyrrolidin-1-yl)pyridin-4-yl]oxy}phenyl)-6-phenylpyrimidine-2,4-diamine] | ≤ 500 nM |
| Nc1nc(Nc2cccc(Oc3ccnc(N(CCO)CCO)c3)c2)cc(-c2ccccc2)n1 [Example 127, 2,2′-[(4-{3-[(2-amino-6-phenylpyrimidin-4-yl)amino]phenoxy}pyridin-2-yl)imino]diethanol] | ≤ 500 nM |
| Nc1nc(Nc2ccc(Oc3ccnc(N(CCO)CCO)c3)cc2)cc(-c2ccccc2)n1 [Example 129, 2,2′-[(4-{4-[(2-amino-6-phenylpyrimidin-4-yl)amino]phenoxy}pyridin-2-yl)imino]diethanol] | ≤ 500 nM |
| COC[C@H]1CCCN1c1cc(Oc2ccc(Nc3cc(-c4ccccc4)nc(N)n3)cc2)ccn1 [Example 133, N4*-[4-({2-[(2R)-2-(methoxymethyl)pyrrolidin-1-yl]pyridin-4-yl}oxy)phenyl]-6-phenylpyrimidine-2,4-diamine] | ≤ 500 nM |
| Nc1nc(Nc2ccc(Oc3ccnc(N4CCOCC4)c3)cc2)cc(-c2ccccc2)n1 [Example 134, N4*-{4-[(2-morpholin-4-ylpyridin-4-yl)oxy]phenyl}-6-phenylpyrimidine-2,4-diamine] | ≤ 500 nM |
| COCCN(C)c1cc(Oc2ccc(Nc3cc(-c4ccccc4)nc(N)n3)cc2)ccn1 [Example 137, N4*-[4-({2-[(2-methoxyethyl)(methyl)amino]pyridin-4-yl}oxy)phenyl]-6-phenylpyrimidine-2,4-diamine] | ≤ 500 nM |
| Nc1nc(Nc2ccc(Oc3ccnc(N4CCCCC4)c3)cc2)cc(-c2ccccc2)n1 [Example 139, 6-phenyl-N4*-{4-[(2-piperidin-1-ylpyridin-4-yl)oxy]phenyl}pyrimidine-2,4-diamine] | ≤ 500 nM |
| COCCN(CCOC)c1cc(Oc2ccc(Nc3cc(-c4ccccc4)nc(N)n3)cc2)ccn1 [Example 140, N4*-[4-({2-[bis(2-methoxyethyl)amino]pyridin-4-yl}oxy)phenyl]-6-phenylpyrimidine-2,4-diamine] | ≤ 500 nM |
| Nc1nc(Nc2ccc(Oc3ccnc(NCCCN4CCOCC4)c3)cc2)cc(-c2ccccc2)n1 [Example 142, N4*-[4-({2-[(3-morpholin-4-ylpropyl)amino]pyridin-4-yl}oxy)phenyl]-6-phenylpyrimidine-2,4-diamine] | ≤ 500 nM |
| COc1cc(-c2cc(Nc3ccc(Oc4ccnc(N5CCOCC5)c4)cc3)nc(N)n2)ccc1O [Example 143, 4-[2-amino-6-({4-[(2-morpholin-4-ylpyridin-4-yl)oxy]phenyl}amino)pyrimidin-4-yl]-2-methoxyphenol] | ≤ 500 nM |
